Results reported in patent US9084766B2, “Compounds and compositions for targeting cancer stem cells” (Boston Biomedical, Inc., priority 2010, dated 2015).
“Also recorded” adds a separate entry of the source.

Legend:
DU145 = assay: IC50 versus treatment time, DU145; format: cell-based; conditions: DU145 cancer cells
Description: (§1) The studies described herein discovered counter-intuitively that cancer cells and cancer stem cells requires much shorter exposure than normal cells to be killed by Compound 1. Normal cells can tolerate up to 24 hours of exposure to Compound 1. Furthermore, the studies here discovered that normal cells can recover after a short period of no-drug exposure, while cancer cells cannot recover once they are exposed to a certain concentration of the Compound 1 for at least 2 hours. Based on these studies, a special pharmacokinetic exposure [termed selective pharmacokinetic profile (SPP), or preferred pharmacokinetic profile (PPP), which is used interchangeably in this publication] was designed for Compound 1 using the data shown below in Table 14 for achieving selective antitumor activity in patients (FIG. 24).

[1] = Toxicity / body weight in tumor-bearing mice; format: in vivo
Description: All regimens were administered daily (qd). Body weights were evaluated periodically during treatment. Each point represents the mean±SEM of eight tumors. […] All regimens were administered daily (qd). Body weights were evaluated periodically during treatment. Each point represents the mean±SEM of eight tumors.
(§2) Daily examinations into the health status of each animal were also conducted. Body weights were checked every three days. Food and water was supplied daily according to the animal husbandry procedures of the facility. Treatment producing>20% lethality and or >20% net body weight loss were considered toxic. Results are expressed as mean tumor volume (mm^3)±SE. P Values<0.05 are considered to be statistically relevant.

[2] = tested on: FaDu human head and neck cancer; assay: Antitumor activity in subcutaneous FaDu xenograft mice; format: in vivo
Description: In the studies shown in FIG. 8, immunosuppressed mice with established subcutaneous FaDu human head and neck cancer were given indicated amount of hand grounded Compound 1 with Crystal Form 1, or vehicle control orally (po). Compound 1 was formulated in […]™. All regimens were administered daily (qd). Tumor sizes were evaluated periodically during treatment.
In the study shown in FIG. 9, immunosuppressed mice with established subcutaneous FaDu human head and neck cancer were given 100 mg/kg of micronized Compound 1 produced with the synthetic process described in FIGS. 5A and 5B (first crop), or vehicle control orally (po). Compound 1 was formulated in […]™. All regimens were administered daily (qd). Tumor sizes were evaluated periodically during treatment. Form 2 has been successfully manufactured by a current good manufacturing practice (cGMP) process and received approval from the FDA and Health Canada to be used in clinical trials.
Form 3 can only be generated from Form 1 using a specially designed slurry process described herein. […] In the study shown in FIG. 10, immunosuppressed mice with established subcutaneous FaDu human head and neck cancer were given 200 mg/kg of Compound 1 with hand grounded Crystal Form 1 or Form 3, or vehicle control orally (po). Compound 1 was formulated in gelucire. All regimens were administered daily (qd). Tumor sizes were evaluated periodically during treatment. This polymorph has been successfully manufactured by a cGMP process and received approval from FDA and Health Canada to be used in clinical trials.
The anti-tumor activity of particles of Compound 1 with different particle size ranges is illustrated in FIG. 15, and the pharmacokinetic data for particles of Compound 1 with different particle size ranges is illustrated in FIGS. 16-18. In the study shown in FIG. 15, immunosuppressed mice with established subcutaneous FaDu human head and neck cancer were given indicated amount of Compound 1 with indicated particle size, or vehicle control orally (po). All regimens were administered daily (qd). Tumor size was evaluated periodically.
In an experiment, a formulation of Compound 1 particles sieved to 160 micron was tested in the model of immunosuppressed mice with established subcutaneous xenograft FaDu human head and neck cancer. The pharmaceutical composition was formulated as 80 mg/ml in 9% Gelucire, 20% Vitamin E TPGS (Table 3). […] All regimens were administered daily (qd).
In an experiment, Compound 1 crystals were milled to a median particle size of about 20 micron. […] All regimens were administered daily (qd).
FaDu human head and neck cancer cells were inoculated subcutaneously into female athymic nude mice (6×10^6 cells/mouse) and allowed to form palpable tumors. When the tumors reached approximately 100 mm^3, the animals were treated orally (po) with Compound 1 at 100 mg/kg or vehicle control daily. Compound 1 was formulated at 10 mg/ml in 20% gelucire. Tumors and bodyweights were measured throughout treatment (FIG. 15).
as §2
Male or female athymic nude mice 4-5 weeks (Charles River Laboratories, Wilmington, Mass.), were acclimated to the animal housing facility for at least 1 week before study initiation. […]

[3] = Compound concentration in patient urine; format: in vivo, human
HT29 = assay: IC50 versus treatment time, HT29; format: cell-based; conditions: HT29 cancer cells
Description: as §1

[4] = composition of particle size less than 5 micron, mice

CC(=O)c1cc2c(o1)C(=O)c1ccccc1C2=O [Compound 1, 2-acetyl-4H,9H-naphtho[2,3-b]furan-4,9-dione]
IC50 (DU145; treatment time 12-24 h): < 0.2 µM | IC50 (DU145; Homo sapiens, DU-145, treatment time 4-12 h): < 0.2 µM | mice died during the treatment ([1]; about 90% pure, FaDu experiment (upper panel)): 4 mice | mice died during the treatment ([1]; about 90% pure, MDA-231 experiment (lower panel)): 3 mice | toxicity ([1]; about 90% pure, in GELUCIRE, po qd, FaDu or MDA-231 bearing mice (FIG. 13)): Significant toxicity | toxicity [1, 4]: no observed toxicity | tolerability / toxicity ([1]; higher purity (about 95% or greater), po qd, FaDu or MDA-231 bearing mice (FIG. 14)): well-tolerated and showed no signs of toxicity | anti-tumor activity [2, 4]: potent anti-tumor activity | efficacy ([2]; composition with particle size greater than 20 micron, mice): no or weak efficacy | efficacy ([2]; median particle size about 2 micron, 100 mg/kg po daily, 20% gelucire, 100 mg/kg): surprisingly enhanced anti-tumor activity; also recorded: good efficacy; also recorded: strong efficacy; also recorded: potent efficacy | efficacy ([2]; median particle size about 2 micron, 100 mg/kg po daily, 20% gelucire, listed as naphthofuran compound, 100 mg/kg): dramatically enhanced efficacy | efficacy ([2]; median particle size about 20 micron, 200 mg/kg daily oral, 200 mg/kg): weak or moderate efficacy | efficacy ([2]; median particle size about 20 micron, 200 mg/kg daily oral, listed as naphthofuran compound, 200 mg/kg): relative weak | anti-tumor activity ([2]; nanoparticles, D50 about 100 nanometers (110.4 nanometers)): reduction of anti-tumor activity | efficacy ([2]; particles sieved to 160 micron (150 micron), 400 mg/kg daily oral, 400 mg/kg): no efficacy | efficacy ([2]; particles sieved to 160 micron (150 micron), 400 mg/kg daily oral, listed as naphthofuran compound, 400 mg/kg): no efficacy | BBI608 concentration in patient urine ([3]; patient 7, total daily dose 320 mg, 120-240 min post dose): 4.3 µM | BBI608 concentration in patient urine ([3]; patient 7, total daily dose 320 mg, 360-480 min post dose): 23.1 µM | BBI608 concentration in patient urine ([3]; patient 8, total daily dose 320 mg, 120-240 min post dose): 7.9 µM | BBI608 concentration in patient urine ([3]; patient 8, total daily dose 320 mg, 360-480 min post dose): 1.8 µM | BBI608 concentration in patient urine ([3]; patient 9, total daily dose 320 mg, 120-240 min post dose): 8.9 µM | BBI608 concentration in patient urine ([3]; patient 9, total daily dose 320 mg, 360-480 min post dose): 23.6 µM | BBI608 concentration in patient urine ([3]; patient 10, total daily dose 320 mg, 120-240 min post dose): 22.7 µM | BBI608 concentration in patient urine ([3]; patient 10, total daily dose 320 mg, 360-480 min post dose): 26.2 µM | BBI608 concentration in patient urine ([3]; patient 11, total daily dose 320 mg, 120-240 min post dose): 1.8 µM | BBI608 concentration in patient urine ([3]; patient 11, total daily dose 320 mg, 360-480 min post dose): 4.5 µM | BBI608 concentration in patient urine ([3]; patient 12, total daily dose 400 mg, 120-240 min post dose): 4.11 µM | BBI608 concentration in patient urine ([3]; patient 12, total daily dose 400 mg, 360-480 min post dose): 3.86 µM | BBI608 concentration in patient urine ([3]; patient 14, total daily dose 400 mg, 120-240 min post dose): 1.42 µM | BBI608 concentration in patient urine ([3]; patient 14, total daily dose 400 mg, 360-480 min post dose): 5 µM | BBI608 concentration in patient urine ([3]; patient 15, total daily dose 600 mg, 120-240 min post dose): 3.1 µM | BBI608 concentration in patient urine ([3]; patient 15, total daily dose 600 mg, 360-480 min post dose): 10.65 µM | BBI608 concentration in patient urine ([3]; patient 17, total daily dose 600 mg, 120-240 min post dose): 1.66 µM | BBI608 concentration in patient urine ([3]; patient 17, total daily dose 600 mg, 360-480 min post dose): 45.35 µM | BBI608 concentration in patient urine ([3]; patient 18, total daily dose 600 mg, 120-240 min post dose): 2.41 µM | BBI608 concentration in patient urine ([3]; patient 18, total daily dose 600 mg, 360-480 min post dose): 6.3 µM | BBI608 concentration in patient urine ([3]; patient 20, total daily dose 800 mg, 120-240 min post dose): 6.17 µM | BBI608 concentration in patient urine ([3]; patient 20, total daily dose 800 mg, 360-480 min post dose): 118.25 µM | BBI608 concentration in patient urine ([3]; patient 21, total daily dose 800 mg, 120-240 min post dose): 0.42 µM | BBI608 concentration in patient urine ([3]; patient 21, total daily dose 800 mg, 360-480 min post dose): 7.42 µM | BBI608 concentration in patient urine ([3]; patient 23, total daily dose 800 mg, 120-240 min post dose): 2.51 µM | BBI608 concentration in patient urine ([3]; patient 23, total daily dose 800 mg, 360-480 min post dose): 11.97 µM | IC50 (HT29; treatment time 12-24 h): < 0.5 µM | IC50 (HT29; Homo sapiens, HT-29, treatment time 4-12 h): < 0.5 µM
